# Reference: patent publication US8609711B2, “Crystalline N-{(1S)-2-amino-1-[(3-fluorophenyl)methyl]ethyl}-5-chloro-4-(4-chloro-1-methyl-1H-pyrazol-5-yl)-2-thiophenecarboxamic hydrochloride” (GlaxoSmithKline LLC, priority 2009, dated 2013)
# Entries after “also recorded” stand apart in the source; their conditions may differ.
# Test: Hygroscopicity, VTI instrument SGA 100
# Details: for weight increase (moisture): 25 °C; for hygroscopicity (in words): hydrochloride
# Description: There were 24 Relative Humidity steps used. The Relative Humidity at each step is as follows.
Compound,"weight increase (moisture) (no drying, 24 relative humidity steps between 5 and 90, max equilibrium time 240 min)",hygroscopicity (in words),"weight increase (moisture) (drying at 60 °C, 19 relative humidity steps between 0 and 90, max equilibrium time 300 min)"
Cl.Cn1ncc(Cl)c1-c1cc(C(=O)N[C@H](CN)Cc2cccc(F)c2)sc1Cl [Compound A],less than 1 % w/w,non-hygroscopic; also recorded: low level of hygroscopicity,
Cl.Cn1ncc(Cl)c1-c1cc(C(=O)N[C@H](CN)Cc2cccc(F)c2)sc1Cl [Example 3],,hygroscopic; also recorded: high level of hygroscopicity,more than 18 % w/w
